Here are results for two compounds from patent US11845770B2, “Ascaroside derivatives and methods of use” (California Institute of Technology, priority 2019, dated 2023).

What is called inhibition is the change of the read-out against control, counted positive when it falls.

In one series the target is T1, CYP1A2 (Homo sapiens, UniProt P05177).
T1 construct: from tissue
T1 sequence (P05177 1-516): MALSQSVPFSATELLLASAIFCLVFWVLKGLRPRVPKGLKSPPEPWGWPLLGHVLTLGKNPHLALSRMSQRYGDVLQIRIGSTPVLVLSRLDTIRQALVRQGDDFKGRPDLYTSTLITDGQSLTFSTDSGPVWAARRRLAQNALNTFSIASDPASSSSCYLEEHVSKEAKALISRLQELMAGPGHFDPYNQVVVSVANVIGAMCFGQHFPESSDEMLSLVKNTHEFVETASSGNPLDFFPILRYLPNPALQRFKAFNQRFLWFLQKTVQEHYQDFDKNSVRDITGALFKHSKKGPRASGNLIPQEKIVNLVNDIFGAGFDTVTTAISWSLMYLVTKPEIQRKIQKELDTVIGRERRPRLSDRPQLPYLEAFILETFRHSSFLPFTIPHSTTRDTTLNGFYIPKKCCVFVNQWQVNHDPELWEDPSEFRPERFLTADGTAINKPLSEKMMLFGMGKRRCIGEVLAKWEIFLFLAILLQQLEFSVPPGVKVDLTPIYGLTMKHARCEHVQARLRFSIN
Nature of the series: 5 in 1 CYP inhibition assay, CYP1A2. The series is classed as in vitro ADME. The settings on record: microsomes, probe phenacetin (O-deethylation), test compound 10 μM, n=2, read-out: inhibition of cytochrome P450 isoform 1A2. The method, then:
CYP450 dependent activities were determined using a marker substrate cocktail. For each reaction, enzyme activities in the presence and absence of test compound (10 μM) were measured in duplicate. A known inhibitor for each isoform, tested at a single concentration (3 μM, n=2), was included as positive control. Incubation mixtures containing microsomes, substrate, and standard inhibitor or test compound were warmed at 37° C. for 10 minutes. Reactions were initiated by addition of the NADPH and incubated for 10 min. [table] After incubation, ice cold acetonitrile was added to terminate the reaction. Generation of metabolites from the substrate reactions was determined by LC-MS/MS.

A short description of series [1]: Plasma protein binding, HT-Dialysis (human). It counts as in vitro ADME. The settings on record: pH 7.4, dialysis 4 hours, read-out: percent unbound. On the procedure:
HT-Dialysis plate (Model HTD 96 b, Cat #1006) and the dialysis membrane (molecular weight cut off 12-14 KDa, Cat #1101) can be purchased from HT Dialysis LLC (Gales Ferry, CT).
The plasma was thawed under running cold tap water and centrifuged at 3220×g for 5 min to remove any clots. The pH value was checked and recorded. Only plasma within range of pH 7.0 to pH 8.0 was used. The dialysis membrane was pretreated according to the manufacturer's instructions. Briefly, the dialysis membrane strips were soaked in ultra-pure water at room temperature for approximately 1 hr. After that, each membrane strip that contained 2 membranes was separated and soaked in ethanol:water (20:80 v:v) for approximately 20 min. The membrane was rinsed and soaked for 20 min in ultra-pure water.
Aliquots of 50 μL loading plasma (matrix) containing compound 1 or warfarin in triplicate were transferred to the appropriate wells of a sample collection plate. The samples were matched with dialysis buffer to obtain a final volume of 100 μL with a volume ratio of plasma (matrix):dialysis buffer (1:1, v:v) in each well. […]
The % Unbound, % Bound, % Recovery and % Remaining were calculated using the following equations: % Unbound=100×F/T % Bound=100−% Unbound % Recovery=100×(F+T)/T0 • F=the compound 1 concentration on the receiver side of the membrane/Correction Factor. […]

`C[C@H](CC/C=C/C(=O)O)O[C@@H]1O[C@@H](C)[C@H](O)C[C@H]1O` [ascr #7, reference compound]: at CYP1A2, the inhibition at 10 min, 10 µM is 2.3%. Further, the fraction unbound at 4 h in series [1] came to 0.868.
With `C[C@H](CC/C=C/C(=O)OC(C)(C)C)O[C@@H]1O[C@@H](C)[C@H](O)C[C@H]1O` [Compound 1, tert-butyl (2E,6R)-6-{[(2R,3R,5R,6S)-3,5-dihydroxy-6-methyloxan-2-yl]oxy}hept-2-enoate], on CYP1A2, the inhibition at 10 min, 10 µM was 10.9%. Further, the fraction unbound at 4 h in series [1] was 0.329.
